Test system: MV-4-11 cells
Assay: Gene expression microarray analysis (Affymetrix PrimeView) and GSEA
Format: cell-based, human
Design: RFU PODN (11730768_x_at) / Fold change /veh PODN (11730768_x_at) / RFU LINC00158 (11744669_a_at) / Fold change /veh LINC00158 (11744669_a_at) / RFU DUSP10 (11751237_a_at) / Fold change /veh DUSP10 (11751237_a_at) / RFU ID3 (11757404_x_at) / Fold change /veh ID3 (11757404_x_at) / RFU PLEKHG5 (11737974_s_at) / Fold change /veh PLEKHG5 (11737974_s_at) / RFU LRRC4B (11730491_at) / Fold change /veh LRRC4B (11730491_at) / RFU GIMAP4 (11747438_a_at) / Fold change /veh GIMAP4 (11747438_a_at) / RFU KRT8 (11758183_x_at) / Fold change /veh KRT8 (11758183_x_at) / RFU CNN1 (11734310_a_at) / Fold change /veh CNN1 (11734310_a_at) / RFU VPS37D (11726825_at) / Fold change /veh VPS37D (11726825_at) / RFU C10orf10 (11716522_x_at) / Fold change /veh C10orf10 (11716522_x_at) / RFU KIR2DL2 /// KIR2DL4 /// KIR2DL5A /// KIR2DL5B /// KIR2DS1 /// KIR2DS2 /// KIR2DS3 /// KIR2DS4 /// KIR3DL3 /// KIR3DL3 /// KIR3DS1 (11738374_at) / Fold change /veh KIR2DL2 /// KIR2DL4 /// KIR2DL5A /// KIR2DL5B /// KIR2DS1 /// KIR2DS2 /// KIR2DS3 /// KIR2DS4 /// KIR3DL3 /// KIR3DL3 /// KIR3DS1 (11738374_at) / RFU C1QL1 (11718748_at) / Fold change /veh C1QL1 (11718748_at) / RFU TMPRSS4 (11747572_a_at) / Fold change /veh TMPRSS4 (11747572_a_at) / RFU HAMP (11756126_x_at) / Fold change /veh HAMP (11756126_x_at) / RFU RNFT2 (11725882_a_at) / Fold change /veh RNFT2 (11725882_a_at) / RFU NR4A2 (11747474_a_at) / Fold change /veh NR4A2 (11747474_a_at) / RFU ABCC12 (11746883_a_at) / Fold change /veh ABCC12 (11746883_a_at) / RFU TMEM136 (11760407_x_at) / Fold change /veh TMEM136 (11760407_x_at) / RFU CLDN22 /// WWC2 (11732394_at) / Fold change /veh CLDN22 /// WWC2 (11732394_at) / RFU HLA-DPB1 (11760878_x_at) / Fold change /veh HLA-DPB1 (11760878_x_at) / RFU SPINT1 (11716480_a_at) / Fold change /veh SPINT1 (11716480_a_at) / RFU GAP43 (11754022_s_at) / Fold change /veh GAP43 (11754022_s_at) / RFU A4GNT (11735810_at) / Fold change /veh A4GNT (11735810_at) / RFU PRB3 (11715151_x_at) / Fold change /veh PRB3 (11715151_x_at) / RFU TUBB4B (11761932_at) / Fold change /veh TUBB4B (11761932_at) / RFU CAPN14 (11732068_a_at) / Fold change /veh CAPN14 (11732068_a_at) / RFU TMCC2 (11721928_a_at) / Fold change /veh TMCC2 (11721928_a_at) / RFU IRGQ (11745062_a_at) / Fold change /veh IRGQ (11745062_a_at) / RFU FAM174B (11720279_a_at) / Fold change /veh FAM174B (11720279_a_at) / RFU TMPRSS4 (11748680_a_at) / Fold change /veh TMPRSS4 (11748680_a_at) / RFU FAM212B (11763350_a_at) / Fold change /veh FAM212B (11763350_a_at) / RFU PLEKHG5 (11743358_a_at) / Fold change /veh PLEKHG5 (11743358_a_at) / RFU ZSCAN30 (11745921_a_at) / Fold change /veh ZSCAN30 (11745921_a_at) / RFU CMKLR1 (11741424_a_at) / Fold change /veh CMKLR1 (11741424_a_at) / RFU LOC101060620 /// MAPK8IP1 (11723275_at) / Fold change /veh LOC101060620 /// MAPK8IP1 (11723275_at) / RFU SPTSSB (11747773_x_at) / Fold change /veh SPTSSB (11747773_x_at) / RFU PRSS12 (11739890_at) / Fold change /veh PRSS12 (11739890_at) / RFU BIN1 (11741810_x_at) / Fold change /veh BIN1 (11741810_x_at) / RFU WNT11 (11732464_a_at) / Fold change /veh WNT11 (11732464_a_at) / RFU C10orf10 (11716521_a_at) / Fold change /veh C10orf10 (11716521_a_at) / RFU C5orf56 (11738089_at) / Fold change /veh C5orf56 (11738089_at) / RFU CYB561 (11721691_x_at) / Fold change /veh CYB561 (11721691_x_at) / RFU ANKRD19P (11752326_a_at) / Fold change /veh ANKRD19P (11752326_a_at) / RFU OR2T12 /// OR2T33 /// OR2T8 (11738714_s_at) / Fold change /veh OR2T12 /// OR2T33 /// OR2T8 (11738714_s_at) / RFU VCAN (11748164_a_at) / Fold change /veh VCAN (11748164_a_at) / RFU JSRP1 (11732532_at) / Fold change /veh JSRP1 (11732532_at) / RFU KRTAP10-11 (11738290_x_at) / Fold change /veh KRTAP10-11 (11738290_x_at) / RFU MYO3A (11730013_a_at) / Fold change /veh MYO3A (11730013_a_at) / RFU EBF3 (11725865_a_at) / Fold change /veh EBF3 (11725865_a_at) / RFU CAMK2N1 (11719241_x_at) / Fold change /veh CAMK2N1 (11719241_x_at) / RFU C5orf56 (11738088_a_at) / Fold change /veh C5orf56 (11738088_a_at) / RFU OLFML3 (11715873_a_at) / Fold change /veh OLFML3 (11715873_a_at) / RFU LOC100653217 /// NTM (11731650_a_at) / Fold change /veh LOC100653217 /// NTM (11731650_a_at) / RFU MAPK11 (11762145_a_at) / Fold change /veh MAPK11 (11762145_a_at) / RFU FIZ1 (11724087_x_at) / Fold change /veh FIZ1 (11724087_x_at) / RFU OASL (11726364_x_at) / Fold change /veh OASL (11726364_x_at) / RFU SOX15 (11748057_x_at) / Fold change /veh SOX15 (11748057_x_at) / RFU CD79A (11719716_a_at) / Fold change /veh CD79A (11719716_a_at) / RFU HIST1H1D (11736915_at) / Fold change /veh HIST1H1D (11736915_at) / RFU CASKIN2 (11723855_a_at) / Fold change /veh CASKIN2 (11723855_a_at) / RFU LOC730098 (11760151_x_at) / Fold change /veh LOC730098 (11760151_x_at) / RFU OR4N2 (11742367_at) / Fold change /veh OR4N2 (11742367_at) / RFU PRRT2 (11749266_a_at) / Fold change /veh PRRT2 (11749266_a_at) / RFU SNX32 (11753110_a_at) / Fold change /veh SNX32 (11753110_a_at) / RFU CDHR5 (11726645_a_at) / Fold change /veh CDHR5 (11726645_a_at) / RFU RCAN1 (11760418_a_at) / Fold change /veh RCAN1 (11760418_a_at) / RFU FAM167A (11723789_a_at) / Fold change /veh FAM167A (11723789_a_at) / RFU FAM26E (11764081_at) / Fold change /veh FAM26E (11764081_at) / RFU ISYNA1 (11749810_s_at) / Fold change /veh ISYNA1 (11749810_s_at) / RFU ACY1 (11761880_at) / Fold change /veh ACY1 (11761880_at) / RFU 11764098_at / Fold change /veh 11764098_at / RFU SAMD14 (11745864_x_at) / Fold change /veh SAMD14 (11745864_x_at) / RFU NPB (11741838_a_at) / Fold change /veh NPB (11741838_a_at) / RFU TMPRSS6 (11731388_a_at) / Fold change /veh TMPRSS6 (11731388_a_at) / RFU KRTAP10-2 (11738614_at) / Fold change /veh KRTAP10-2 (11738614_at) / RFU ARHGAP8 /// PRR5-ARHGAP8 (11727945_x_at) / Fold change /veh ARHGAP8 /// PRR5-ARHGAP8 (11727945_x_at) / RFU KRTAP5-7 /// NADSYN1 (11734609_at) / Fold change /veh KRTAP5-7 /// NADSYN1 (11734609_at) / RFU RASL12 (11751679_a_at) / Fold change /veh RASL12 (11751679_a_at) / RFU CDKN2B (11736163_a_at) / Fold change /veh CDKN2B (11736163_a_at) / RFU PRF1 (11729649_at) / Fold change /veh PRF1 (11729649_at) / RFU, ZNF638 /// ZNF638-IT1 / Fold change vs veh, ZNF638 /// ZNF638-IT1 / RFU, PANK3 / Fold change vs veh, PANK3 / RFU, SH3YL1 / Fold change vs veh, SH3YL1 / RFU, ZEB2 / Fold change vs veh, ZEB2 / RFU, NRIP1 / Fold change vs veh, NRIP1 / RFU, PTTG1IP / Fold change vs veh, PTTG1IP / RFU, CAPN2 / Fold change vs veh, CAPN2 / RFU, MED14 / Fold change vs veh, MED14 / RFU, SNORA58 / Fold change vs veh, SNORA58 / RFU, C1orf63 / Fold change vs veh, C1orf63 / RFU, LRRFIP1 / Fold change vs veh, LRRFIP1 / RFU, NDUFAF7 / Fold change vs veh, NDUFAF7 / RFU, SLC12A2 / Fold change vs veh, SLC12A2 / RFU, IBTK / Fold change vs veh, IBTK / RFU, ESF1 / Fold change vs veh, ESF1 / Fold change vs veh, TMEM50B / RFU, TAOK1 / Fold change vs veh, TAOK1 / RFU, ACBD3 / Fold change vs veh, ACBD3 / RFU, TMA16 / Fold change vs veh, TMA16 / RFU, RWDD3 / Fold change vs veh, RWDD3 / RFU, BCAT1 / Fold change vs veh, BCAT1 / RFU, EDEM3 / Fold change vs veh, EDEM3 / RFU, TMEM33 / Fold change vs veh, TMEM33 / RFU, WDR75 / Fold change vs veh, WDR75 / RFU, AHCTF1 / Fold change vs veh, AHCTF1 / RFU, TFRC / Fold change vs veh, TFRC / RFU, ZDHHC17 / Fold change vs veh, ZDHHC17 / RFU, NOM1 / Fold change vs veh, NOM1 / RFU, ARL8B / Fold change vs veh, ARL8B / RFU, ZBTB11 / Fold change vs veh, ZBTB11 / RFU, TAMM41 / Fold change vs veh, TAMM41 / RFU, KIAA1704 /// LOC100996395 / Fold change vs veh, KIAA1704 /// LOC100996395 / RFU, ING1 / Fold change vs veh, ING1 / RFU, TRMT61B / Fold change vs veh, TRMT61B / RFU, FUBP3 / Fold change vs veh, FUBP3 / RFU, TP53 / Fold change vs veh, TP53 / RFU, TNKS2 / Fold change vs veh, TNKS2 / RFU, ZFP14 / Fold change vs veh, ZFP14 / RFU, ACTR2 / Fold change vs veh, ACTR2 / RFU, PPP3R1 / Fold change vs veh, PPP3R1 / RFU, PIK3R1 / Fold change vs veh, PIK3R1 / RFU, HNRNPA1 / Fold change vs veh, HNRNPA1 / RFU, RNF170 / Fold change vs veh, RNF170 / RFU, ZNF28 / Fold change vs veh, ZNF28 / RFU, RNGTT / Fold change vs veh, RNGTT / RFU, OGT / Fold change vs veh, OGT / RFU, BRD1 / Fold change vs veh, BRD1 / RFU, MARS / Fold change vs veh, MARS / RFU, ZNF655 / Fold change vs veh, ZNF655 / RFU, FAHD1 / Fold change vs veh, FAHD1 / RFU, BDP1 / Fold change vs veh, BDP1 / RFU, LRRCC1 / Fold change vs veh, LRRCC1 / RFU, ARID1A / Fold change vs veh, ARID1A / RFU, ZNF146 / Fold change vs veh, ZNF146 / RFU, ZNF330 / Fold change vs veh, ZNF330 / RFU, GPN3 / Fold change vs veh, GPN3 / RFU, C9orf123 / Fold change vs veh, C9orf123 / RFU, N4BP2L2 / Fold change vs veh, N4BP2L2 / RFU, ARFIP1 / Fold change vs veh, ARFIP1 / RFU, FAM179B / Fold change vs veh, FAM179B / RFU, BCL10 / Fold change vs veh, BCL10 / RFU, UHRF1BP1L / Fold change vs veh, UHRF1BP1L / RFU, BET1 / Fold change vs veh, BET1 / RFU, CNOT2 / Fold change vs veh, CNOT2 / RFU, ZNF268 / Fold change vs veh, ZNF268 / Fold change vs veh, ZNF507 / RFU, DGCR2 / Fold change vs veh, DGCR2 / RFU, WDSUB1 / Fold change vs veh, WDSUB1 / Fold change vs veh, HSP90B1 /// MIR3652 / RFU, ADSS / Fold change vs veh, ADSS / RFU, GK / Fold change vs veh, GK / RFU, ZNF148 / Fold change vs veh, ZNF148 / RFU, TAF9 / Fold change vs veh, TAF9 / RFU, SLC1A5 / Fold change vs veh, SLC1A5 / RFU, SLMO2 / Fold change vs veh, SLMO2 / RFU, ABCC4 / Fold change vs veh, ABCC4 / RFU, LOC101060439 /// RAP1B / Fold change vs veh, LOC101060439 /// RAP1B / RFU, RFX7 / Fold change vs veh, RFX7 / RFU, GTPBP10 / Fold change vs veh, GTPBP10 / RFU, CNEP1R1 / Fold change vs veh, CNEP1R1 / RFU, BIVM-ERCC5 /// ERCC5 / Fold change vs veh, BIVM-ERCC5 /// ERCC5 / RFU, ILF3 / Fold change vs veh, ILF3 / RFU 11762660_at / Fold change /veh 11762660_at / RFU VCAN (11757783_s_at) / Fold change /veh VCAN (11757783_s_at) / RFU DDX43 (11728927_at) / Fold change /veh DDX43 (11728927_at) / RFU KRT8 (11758188_x_at) / Fold change /veh KRT8 (11758188_x_at) / RFU NKD1 (11759106_at) / Fold change /veh NKD1 (11759106_at) / RFU SRD5A1 (11742802_a_at) / Fold change /veh SRD5A1 (11742802_a_at) / RFU TPSAB1 /// TPSB2 (11721975_s_at) / Fold change /veh TPSAB1 /// TPSB2 (11721975_s_at) / RFU GSTM3 (11746129_a_at) / Fold change /veh GSTM3 (11746129_a_at) / RFU IL23R (11737362_x_at) / Fold change /veh IL23R (11737362_x_at) / RFU TMEM51 (11727254_a_at) / Fold change /veh TMEM51 (11727254_a_at) / RFU PIWIL2 (11732686_x_at) / Fold change /veh PIWIL2 (11732686_x_at) / RFU ORM1 (11744905_x_at) / Fold change /veh ORM1 (11744905_x_at) / RFU CCDC152 (11743942_at) / Fold change /veh CCDC152 (11743942_at) / RFU ECM1 (11717891_a_at) / Fold change /veh ECM1 (11717891_a_at) / RFU IL23R (11748794_a_at) / Fold change /veh IL23R (11748794_a_at) / RFU TNFAIP8L3 (11732012_x_at) / Fold change /veh TNFAIP8L3 (11732012_x_at) / RFU MBOAT4 (11741988_at) / Fold change /veh MBOAT4 (11741988_at) / RFU 11764193_at / Fold change /veh 11764193_at / RFU TMEM53 (11763286_at) / Fold change /veh TMEM53 (11763286_at) / RFU MAGEB2 (11727129_at) / Fold change /veh MAGEB2 (11727129_at) / RFU TMEM200A (11744735_a_at) / Fold change /veh TMEM200A (11744735_a_at) / RFU CCDC152 (11751479_a_at) / Fold change /veh CCDC152 (11751479_a_at) / RFU FAM211A (11726209_a_at) / Fold change /veh FAM211A (11726209_a_at) / RFU RGS16 (11746705_a_at) / Fold change /veh RGS16 (11746705_a_at) / RFU VCAN (11755009_s_at) / Fold change /veh VCAN (11755009_s_at) / RFU RHOB (11743442_s_at) / Fold change /veh RHOB (11743442_s_at) / RFU RGS16 (11720943_a_at) / Fold change /veh RGS16 (11720943_a_at) / RFU RGS16 (11720944_at) / Fold change /veh RGS16 (11720944_at) / RFU, VPS4B / Fold change vs veh, VPS4B / RFU, CREB1 / Fold change vs veh, CREB1 / RFU, DNAJC13 / Fold change vs veh, DNAJC13 / RFU, GNAQ / Fold change vs veh, GNAQ / RFU, CDK5R1 / Fold change vs veh, CDK5R1 / RFU, ZRANB3 / Fold change vs veh, ZRANB3 / RFU, CUL4A / Fold change vs veh, CUL4A / RFU, CCNY / Fold change vs veh, CCNY / RFU, UFL1 / Fold change vs veh, UFL1 / RFU, COG3 / Fold change vs veh, COG3 / RFU, DIAPH2 / Fold change vs veh, DIAPH2 / RFU, SKA2 / Fold change vs veh, SKA2 / RFU, AFF3 / Fold change vs veh, AFF3 / RFU, LMF1 / Fold change vs veh, LMF1 / RFU, IPO11 / Fold change vs veh, IPO11 / RFU, DFFB / Fold change vs veh, DFFB / RFU, FOXP1 / Fold change vs veh, FOXP1 / RFU, CARD8 / Fold change vs veh, CARD8 / RFU, STRN3 / Fold change vs veh, STRN3 / RFU, ADK / Fold change vs veh, ADK / RFU, RASSF2 / Fold change vs veh, RASSF2 / RFU, WIPF1 / Fold change vs veh, WIPF1 / RFU, LARP1B / Fold change vs veh, LARP1B / RFU, RASA1 / Fold change vs veh, RASA1 / RFU, RB1 / Fold change vs veh, RB1 / RFU, PPFIA1 / Fold change vs veh, PPFIA1 / RFU, MAT2A / Fold change vs veh, MAT2A / RFU, CCT5 / Fold change vs veh, CCT5 / RFU, WDR92 / Fold change vs veh, WDR92 / RFU, CUX1 / Fold change vs veh, CUX1 / RFU, TTC7A / Fold change vs veh, TTC7A / RFU, TMEM135 / Fold change vs veh, TMEM135 / RFU, DEPTOR / Fold change vs veh, DEPTOR / RFU, CPM / Fold change vs veh, CPM / RFU, DNAJB6 / Fold change vs veh, DNAJB6 / RFU, CACNA2D3 / Fold change vs veh, CACNA2D3 / RFU, DTX4 / Fold change vs veh, DTX4 / RFU, TFCP2 / Fold change vs veh, TFCP2 / RFU, GMCL1 /// GMCL1P1 / Fold change vs veh, GMCL1 /// GMCL1P1 / RFU, AEBP2 / Fold change vs veh, AEBP2 / RFU, SNHG1 /// SNORD22 /// SNORD25 /// SNORD26 /// SNORD27 /// SNORD28 /// SNORD29 /// SNORD31 / Fold change vs veh, SNHG1 /// SNORD22 /// SNORD25 /// SNORD26 /// SNORD27 /// SNORD28 /// SNORD29 /// SNORD31 / Fold change (Aza/veh), C12orf56 (ProbeSet 11735607_a_at) / Fold change (ACY-1035/veh), C12orf56 (ProbeSet 11735607_a_at) / Fold change (Aza/veh), FGFR1OP (ProbeSet 11751329_s_at) / Fold change (ACY-1035/veh), FGFR1OP (ProbeSet 11751329_s_at) / Fold change (Aza/veh), VPS36 (ProbeSet 11739960_a_at) / Fold change (ACY-1035/veh), VPS36 (ProbeSet 11739960_a_at) / RFU SYPL1 (11715823_x_at) / Fold change /veh SYPL1 (11715823_x_at) / RFU IGFBP7 (11715501_s_at) / Fold change /veh IGFBP7 (11715501_s_at) / RFU REEP3 (11722064_at) / Fold change /veh REEP3 (11722064_at) / RFU IGLL1 (11728026_x_at) / Fold change /veh IGLL1 (11728026_x_at): dose or concentration left out as unconfirmed
Settings: ProbeSet 11723141_at; LIST B

## Nc1ncn([C@@H]2O[C@H](CO)[C@@H](O)[C@H]2O)c(=O)n1 [azacitidine]
  Fold change vs veh, ZBTB11: 0.93

Reference: paper PMC5218480 (PLoS ONE, 2017)
